“Also recorded” adds a separate entry of the source.
System: IGF-1 secretion in the skin
Assay: IGF-1 concentration in the skin after application of essential oil and/or AMP (Experimental Example 1)
Assay type: in vivo, hairless mice (Hos: HR-1)
Conditions: hairless mice, 400 μl on back skin (3 cm×5 cm), 30 minutes after the application; FIG. 1a-1c
Description: In order to examine how the effect of essential oils on the amount of IGF-1 secretion in the skin is affected by AMP, the following compositions containing an essential oil and AMP (Examples 1 to 3 and Comparative Examples 1 to 5) were prepared by a standard method. The pH of each composition was adjusted with NaOH such that the pH ranged from 6.5 to 7.0.
400 μl of a test solution was applied to the skin on the back (3 cm×5 cm) of hairless mice (Hos: HR-1, Japan SLC, Inc., female, 6 to 8 weeks age). 30 minutes after the application, the skin was extracted and frozen-crushed. Then, the IGF-1 concentration in the skin was measured using Quantikine (registered trademark) Mouse IGF-1 Immunoassay (R&D Systems, Inc.).
The composition shown in Table 1 was used as a test solution.
The secreted IGF-1 concentration was measured according to the method described in Experiment 1-1. The composition shown in Table 1 above was used as a test solution.

SMILES: Nc1ncnc2c1ncn2[C@@H]1O[C@H](COP(=O)(O)O)[C@@H](O)[C@H]1O [AMP, adenosine-5′-monophosphate]
- stimulatory effect on IGF-1 secretion (IGF-1 concentration in the skin): did not produce a stimulatory effect on IGF-1 secretion when used alone; also recorded: neither AMP or Scotch pine needle oil stimulated IGF-1 secretion when used alone; also recorded: did not produce a sufficient stimulatory effect on IGF-1 secretion

From patent publication US20110081429A1, “COMPOSITION FOR EXTERNAL USE” (priority 2008, published 2011)
